Assay results: BindingDB's records for doi:10.1016/j.bmc.2019.115125 (Duquesne University, 2019)

test: Binding affinity to human FRalpha expressed in Chinese hamster RT16 cells assessed as antiproliferative activity measured as reduction in cell growth after 96 hrs by Cell-Titer Blue assay

Row | SMILES | IC50 [nM]
1 | CN(Cc1cc2c(=O)[nH]c(N)nc2[nH]1)C(=O)c1ccc(C(=O)N[C@@H](CCC(=O)O)C(=O)O)s1 | 7.8
2 | CN(Cc1cc2c(=O)[nH]c(N)nc2[nH]1)S(=O)(=O)c1ccc(C(=O)N[C@@H](CCC(=O)O)C(=O)O)cc1 | > 1000
3 | CN(Cc1cc2c(=O)[nH]c(N)nc2[nH]1)C(=O)c1cccc(C(=O)N[C@@H](CCC(=O)O)C(=O)O)c1 | 1.8
4 | CN(Cc1cc2c(=O)[nH]c(N)nc2[nH]1)C(=O)c1cc(C(=O)N[C@@H](CCC(=O)O)C(=O)O)cs1 | 867
5 | CN(Cc1cc2c(=O)[nH]c(N)nc2[nH]1)C(=O)c1csc(C(=O)N[C@@H](CCC(=O)O)C(=O)O)c1 | > 1000

test: Binding affinity to human PCFT expressed in Chinese hamster R2/PCFT4 cells assessed as antiproliferative activity measured as reduction in cell growth after 96 hrs by Cell-Titer Blue assay

Row | SMILES | IC50 [nM]
6 | CN(Cc1cc2c(=O)[nH]c(N)nc2[nH]1)C(=O)c1ccc(C(=O)N[C@@H](CCC(=O)O)C(=O)O)s1 | > 1000
7 | CN(Cc1cc2c(=O)[nH]c(N)nc2[nH]1)S(=O)(=O)c1ccc(C(=O)N[C@@H](CCC(=O)O)C(=O)O)cc1 | > 1000
8 | CN(Cc1cc2c(=O)[nH]c(N)nc2[nH]1)C(=O)c1ccc(C(=O)N[C@@H](CCC(=O)O)C(=O)O)cc1 | 49
9 | CN(Cc1cc2c(=O)[nH]c(N)nc2[nH]1)C(=O)c1cccc(C(=O)N[C@@H](CCC(=O)O)C(=O)O)c1 | 747
10 | CN(Cc1cc2c(=O)[nH]c(N)nc2[nH]1)C(=O)c1cc(C(=O)N[C@@H](CCC(=O)O)C(=O)O)cs1 | > 1000
11 | CN(Cc1cc2c(=O)[nH]c(N)nc2[nH]1)C(=O)c1csc(C(=O)N[C@@H](CCC(=O)O)C(=O)O)c1 | > 1000

test: Binding affinity to human RFC expressed in Chinese hamster PC43-10 cells assessed as antiproliferative activity measured as reduction in cell growth after 96 hrs by Cell-Titer Blue assay

Row | SMILES | IC50 [nM]
12 | CN(Cc1cc2c(=O)[nH]c(N)nc2[nH]1)C(=O)c1ccc(C(=O)N[C@@H](CCC(=O)O)C(=O)O)s1 | > 1000
13 | CN(Cc1cc2c(=O)[nH]c(N)nc2[nH]1)S(=O)(=O)c1ccc(C(=O)N[C@@H](CCC(=O)O)C(=O)O)cc1 | > 1000
14 | CN(Cc1cc2c(=O)[nH]c(N)nc2[nH]1)C(=O)c1ccc(C(=O)N[C@@H](CCC(=O)O)C(=O)O)cc1 | > 1000
15 | CN(Cc1cc2c(=O)[nH]c(N)nc2[nH]1)C(=O)c1cccc(C(=O)N[C@@H](CCC(=O)O)C(=O)O)c1 | > 1000
16 | CN(Cc1cc2c(=O)[nH]c(N)nc2[nH]1)C(=O)c1cc(C(=O)N[C@@H](CCC(=O)O)C(=O)O)cs1 | > 1000
17 | CN(Cc1cc2c(=O)[nH]c(N)nc2[nH]1)C(=O)c1csc(C(=O)N[C@@H](CCC(=O)O)C(=O)O)c1 | > 1000
